Experimental data: patent US7910751B2, “Heterocyclidene acetamide derivative” (Mochida Pharmaceutical Co., Ltd., priority 2005, dated 2011)

Target: T1, human TRPV1 (Homo sapiens, UniProt Q8NER1)
T1 construct: expressed in transfected cells; host or cells: CHO-K1
Assay: Measurement of capsaicin-induced Ca influx in human TRPV1 transformed CHO cell line using FDSS-6000
Assay type: cell-based
Details: concentration at which the capsaicin concentration-reaction curve is shifted two times to the right, human TRPV1 transformed CHO cells

T1 sequence (Q8NER1 whole entry): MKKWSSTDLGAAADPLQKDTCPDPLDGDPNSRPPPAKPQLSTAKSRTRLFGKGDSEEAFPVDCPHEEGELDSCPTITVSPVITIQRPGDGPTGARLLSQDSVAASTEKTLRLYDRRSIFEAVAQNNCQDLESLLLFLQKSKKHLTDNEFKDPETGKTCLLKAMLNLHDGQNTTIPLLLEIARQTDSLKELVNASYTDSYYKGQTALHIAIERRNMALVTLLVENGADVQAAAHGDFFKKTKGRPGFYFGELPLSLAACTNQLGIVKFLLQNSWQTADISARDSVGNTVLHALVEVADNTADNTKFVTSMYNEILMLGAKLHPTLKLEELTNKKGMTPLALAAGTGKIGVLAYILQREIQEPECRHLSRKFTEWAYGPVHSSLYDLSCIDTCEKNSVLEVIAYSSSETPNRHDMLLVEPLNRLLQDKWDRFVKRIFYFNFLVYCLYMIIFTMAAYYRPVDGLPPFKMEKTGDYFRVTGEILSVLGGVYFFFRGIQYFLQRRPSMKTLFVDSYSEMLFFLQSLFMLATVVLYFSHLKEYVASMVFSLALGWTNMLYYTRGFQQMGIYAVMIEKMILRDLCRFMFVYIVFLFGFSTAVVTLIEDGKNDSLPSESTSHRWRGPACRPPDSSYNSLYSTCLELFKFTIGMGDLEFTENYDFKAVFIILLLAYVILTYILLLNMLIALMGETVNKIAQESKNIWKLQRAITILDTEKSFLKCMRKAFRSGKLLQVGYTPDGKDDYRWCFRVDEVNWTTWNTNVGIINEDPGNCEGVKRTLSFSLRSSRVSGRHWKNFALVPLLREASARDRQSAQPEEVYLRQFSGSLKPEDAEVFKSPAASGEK

SMILES	A2 VALUE
O=C(/C=C1\CCCOc2cc(C(F)(F)F)ccc21)Nc1ccc2c(c1)C(=O)CCC2 [Example 23, (E)-2-(8-trifluoromethyl-3,4-dihydrobenzo[b]oxepin-5(2H)-ylidene)-N-(1,2,3,4-tetrahydro-1-oxonaphthalen-7-yl)acetamide]	A (compounds of the present invention having an A2 value of less than 100 nM are represented by A)
CC(C)(C)c1ccc2c(c1)OCC/C2=C\C(=O)Nc1ccc2cccnc2c1 [Example 5, (E)-2-(7-tert-butyl-chroman-4-ylidene)-N-(quinolin-7-yl)acetamide]	A (compounds of the present invention having an A2 value of less than 100 nM are represented by A)
O=C(/C=C1\CCCOc2cc(C(F)(F)F)ccc21)Nc1nc(-c2ccccc2)cs1 [Example 47, (E)-2-(8-trifluoromethyl-3,4-dihydrobenzo[b]oxepin-5(2H)-ylidene)-N-(4-phenylthiazolo-2-yl)acetamide]	B (compounds having an A2 value of 100 nM or more are represented by B)
O=C(/C=C1\CCCOc2cc(C(F)(F)F)ccc21)Nc1ccc2c(c1)N(CCO)CCO2 [Example 233]	A (compounds of the present invention having an A2 value of less than 100 nM are represented by A)
CCCCC(=O)N1CC/C(=C\C(=O)Nc2cccc3c2CC(O)CN3)c2ccc(C(F)(F)F)cc21 (stereo not drawn) [Example 108, (E)-2-(7-trifluoromethyl-2,3-dihydro-1-pentanoylquinolin-4(1H)-ylidene)-N-(3-hydroxy-1,2,3,4-tetrahydroquinolin-5-yl)acetamide]	A (compounds of the present invention having an A2 value of less than 100 nM are represented by A)
O=C(/C=C1\CCCOc2cc(C(F)(F)F)ccc21)Nc1ccc(Oc2ccccc2)nc1 [Example 22, (E)-2-(8-trifluoromethyl-3,4-dihydrobenzo[b]oxepin-5(2H)-ylidene)-N-(6-phenoxypyridin-3-yl)acetamide]	B (compounds having an A2 value of 100 nM or more are represented by B)
O=C(/C=C1\CCOc2cc(OC(F)(F)F)ccc21)Nc1cccc2c1CC(O)CN2 (stereo not drawn) [Example 211, (E)-2-(7-trifluoromethoxy-chroman-4-ylidene)-N-(3-hydroxy-1,2,3,4-tetrahydroquinolin-5-yl)acetamide]	A (compounds of the present invention having an A2 value of less than 100 nM are represented by A)
CC1(C)C/C(=C\C(=O)Nc2cccc3c2CC(O)CN3)c2ccc(C(F)(F)F)cc2O1 (stereo not drawn) [Example 245, (E)-2-(7-trifluoromethyl-2,2-dimethylchroman-4-ylidene)-N-(3-hydroxy-1,2,3,4-tetrahydroquinolin-5-yl)acetamide]	A (compounds of the present invention having an A2 value of less than 100 nM are represented by A)
COCCN1CCCc2ccc(NC(=O)/C=C3\CCCOc4cc(C(F)(F)F)ccc43)cc21 [Example 130, (E)-2-(8-trifluoromethyl-3,4-dihydrobenzo[b]oxepin-5(2H)-ylidene)-N-(1-(2-methoxyethyl)-1,2,3,4-tetrahydroquinolin-7-yl)acetamide]	A (compounds of the present invention having an A2 value of less than 100 nM are represented by A)
O=C(/C=C1\CCCOc2cc(C(F)(F)F)ccc21)Nc1cccc2c1CC(O)CC2 (stereo not drawn) [Example 62, (E)-2-(8-trifluoromethyl-3,4-dihydrobenzo[b]oxepin-5-(2H)-ylidene)-N-(7-hydroxy-5,6,7,8-tetrahydronaphthalen-1-yl)acetamide]	A (compounds of the present invention having an A2 value of less than 100 nM are represented by A)
CCC(CC)C(=O)N1CC/C(=C\C(=O)Nc2ccc3cccnc3c2)c2ccc(C(F)(F)F)cc21 [Example 51, (E)-2-(1-(2-ethylbutanoyl)-7-trifluoromethyl-2,3-dihydroquinolin-4(1H)-ylidene)-N-(quinolin-7-yl)acetamide]	A (compounds of the present invention having an A2 value of less than 100 nM are represented by A)
O=C(/C=C1\CCCOc2cc(C(F)(F)F)ccc21)Nc1ccnc2ncnn12 [Example 44, (E)-N-([1,2,4]triazolo[1,5-a]pyrimidin-7-yl)-2-(8-trifluoromethyl-3,4-dihydrobenzo[b]oxepin-5(2H)-ylidene)acetamide]	B (compounds having an A2 value of 100 nM or more are represented by B)
CN1CC(O)Cc2c(NC(=O)/C=C3\CCCOc4cc(C(F)(F)F)ccc43)cccc21 (stereo not drawn) [Example 69, (E)-2-(8-trifluoromethyl-3,4-dihydrobenzo[b]oxepin-5-(2H)-ylidene)-N-(1-methyl-3-hydroxy-1,2,3,4-tetrahydroquinolin-5-yl)acetamide]	A (compounds of the present invention having an A2 value of less than 100 nM are represented by A)
O=C(/C=C1\CCCOc2cc(C(F)(F)F)ccc21)Nc1ccc2c(c1)NC(=O)CC2 [Example 133, (E)-2-(8-trifluoromethyl-3,4-dihydrobenzo[b]oxepin-5(2H)-ylidene)-N-(3,4-dihydro-1H-quinolin-2-on-7-yl)acetamide]	A (compounds of the present invention having an A2 value of less than 100 nM are represented by A)
O=C(C=C1COCc2cc(C(F)(F)F)ccc21)Nc1cccc2c1CC(O)CC2 (stereo in doubt) [Example 237, (E)-2-(7-trifluoromethyl-isochroman-4-ylidene)-N-(7-hydroxy-5,6,7,8-tetrahydronaphthalen-1-yl)acetamide]	A (compounds of the present invention having an A2 value of less than 100 nM are represented by A)
CCC(F)(F)C(=O)N1CC/C(=C\C(=O)Nc2cccc3c2CC(O)C(=O)N3)c2ccc(C(F)(F)F)cc21 (stereo not drawn) [Example 185, (E)-2-(1-(2,2-difluorobutanoyl)-7-trifluoromethyl-2,3-dihydroquinolin-4(1H)-ylidene)-N-(3-hydroxy-2-oxo-1,2,3,4-tetrahydroquinolin-5-yl)acetamide]	A (compounds of the present invention having an A2 value of less than 100 nM are represented by A)
O=C(/C=C1\CCOc2cc(OC(F)(F)C(F)F)ccc21)Nc1cccc2c1CC(O)CC2 (stereo not drawn) [Example 212, (E)-2-(7-(1,1,2,2-tetrafluoroethoxy)-chroman-4-ylidene)-N-(7-hydroxy-5,6,7,8-tetrahydronaphthalen-1-yl)acetamide]	A (compounds of the present invention having an A2 value of less than 100 nM are represented by A)
O=C(/C=C1\CCCOc2cc(C(F)(F)F)ccc21)Nc1cccc2ccc(O)cc12 [Example 18, (E)-2-(8-trifluoromethyl-3,4-dihydrobenzo[b]oxepin-5(2H)-ylidene)-N-(7-hydroxynaphthalen-1-yl)acetamide]	A (compounds of the present invention having an A2 value of less than 100 nM are represented by A)
O=C(/C=C1\CCCOc2cc(C(F)(F)F)ccc21)Nc1cccc2c1CC(O)C2 (stereo not drawn) [Example 163, (E)-2-(8-trifluoromethyl-3,4-dihydrobenzo[b]oxepin-5(2H)-ylidene)-N-(indan-2-ol-4-yl)acetamide]	A (compounds of the present invention having an A2 value of less than 100 nM are represented by A)
O=C(/C=C1\CCCOc2cc(C(F)(F)F)ccc21)Nc1ccc2c(c1)OC(CO)CO2 (stereo not drawn) [Example 165, (E)-2-(8-trifluoromethyl-3,4-dihydrobenzo[b]oxepin-5(2H)-ylidene)-N-(3-hydroxymethyl-2,3-dihydro-1,4-benzodioxin-6-yl)acetamide]	A (compounds of the present invention having an A2 value of less than 100 nM are represented by A)
CC(=O)N1CC/C(=C\C(=O)Nc2ccc3cccnc3c2)c2ccc(C(F)(F)F)cc21 [Example 48, (E)-2-(1-acetyl-7-trifluoromethyl-2,3-dihydroquinolin-4(1H)-ylidene)-N-(quinolin-7-yl)acetamide]	A (compounds of the present invention having an A2 value of less than 100 nM are represented by A)
O=C(/C=C1\CCCOc2cc(C(F)(F)F)ccc21)Nc1cccc2c1CC(O)C(=O)N2 (stereo not drawn) [Example 67, (E)-2-(8-trifluoromethyl-3,4-dihydrobenzo[b]oxepin-5(2H)-ylidene)-N-(3-hydroxy-2-oxo-1,2,3,4-tetrahydroquinolin-5-yl)acetamide]	A (compounds of the present invention having an A2 value of less than 100 nM are represented by A)
O=C(/C=C1\CCN(C(=O)CC(F)(F)F)c2cc(C(F)(F)F)ccc21)Nc1cccc2c1CC(O)CC2 (stereo not drawn) [Example 92, (E)-2-(1-(3,3,3-trifluoropropanoyl)-7-trifluoromethyl-2,3-dihydroquinolin-4(1H)-ylidene)-N-(7-hydroxy-5,6,7,8-tetrahydronaphthalen-1-yl)acetamide]	A (compounds of the present invention having an A2 value of less than 100 nM are represented by A)
CC(C)c1ccc2c(c1)OCC/C2=C\C(=O)Nc1cccc2c1CC(O)CC2 (stereo not drawn) [Example 206, (E)-2-(7-isopropyl-chroman-4-ylidene)-N-(7-hydroxy-5,6,7,8-tetrahydronaphthalen-1-yl)acetamide]	A (compounds of the present invention having an A2 value of less than 100 nM are represented by A)
CC1(C)N/C(=C\C(=O)Nc2cccc3c2CC(O)CC3)c2ccc(C(F)(F)F)cc2O1 (stereo not drawn) [Example 240, (Z)-2-(6-trifluoromethyl-3,3-dimethyl-4-oxa-3,4-dihydro-(2H)-isoquinolin-1-ylidene)-N-(7-hydroxy-5,6,7,8-tetrahydronaphthalen-1-yl)acetamide]	A (compounds of the present invention having an A2 value of less than 100 nM are represented by A)
CS(=O)(=O)O.O=C(/C=C1\CCCOc2cc(C(F)(F)F)ccc21)Nc1ccc2cccnc2c1 [Example 127, (E)-2-(8-trifluoromethyl-3,4-dihydrobenzo[b]oxepin-5(2H)-ylidene)-N-(quinolin-7-yl)acetamide methanesulfonate]	A (compounds of the present invention having an A2 value of less than 100 nM are represented by A)
CN1CCCc2ccc(NC(=O)/C=C3\CCCOc4cc(C(F)(F)F)ccc43)cc21 [Example 17, (E)-2-(8-trifluoromethyl-3,4-dihydrobenzo[b]oxepin-5(2H)-ylidene)-N-(1,2,3,4-tetrahydro-1-methylquinolin-7-yl)acetamide]	A (compounds of the present invention having an A2 value of less than 100 nM are represented by A)
